Measured values taken from patent US8680129B2, “Compounds, composition, methods, targets for cancer therapy” (priority 2008, dated 2014).
Where “and” joins values, the source holds several entries; their conditions need not be identical. Identical values can stand only once. Like-named read-outs stand apart in the source and are kept apart here.

What was measured:
HT1080 cells [1] = assay: mPMS dose-response with WST-1c and apigenin, cell viability; assay type: cell-based, human; details: mPMS variable with 1 mM WST-1c and 10, 30 or 100 μM apigenin
Method: (§1) Method: A & B: HT1080 (FIG. 16A) and UM-SCC6 (FIG. 16B) cells were treated with variable concentrations of mPMS as indicated in combination with 1 mM WST-1c and 10, 30 or 100 μM apigenin for 4 hours and, then, changed to normal growth medium for another 24 hours. Cell viabilities were measured by CCK8 Kit. 1 mM WST-1 only, 0.12 mM mPMS only and 10% WST-1r were used as parallel control. AP 0: Untreated Control, AP 10: 10 μM Apigenin, AP 30: 30 μM Apigenin, AP 100: 100 μM Apigenin.

UM-SCC6 cells [2] = assay: as above; assay type: cell-based, human; details: for IC50: read-out: mPMS1050
Method: as §1

[3] = system: non cancer human keratinocyte (HEKa); assay: Differential cellular responses to mPMS, cell viability; assay type: cell-based
Method: (§2) Non cancer human keratinocyte (HEKa), SK-Mel-5 human malonoma cell line (SK5), human head and neck cancer cell Cal27 line (Cal27) and UM-SCC6 line (SCC6) cells and human soft tissue sarcoma cell line HT1080 (HT1080) were treated with 30, 40 or 50 μM mPMS for 4 hours and then cultured in normal growth medium for another 24 hours. Cell viabilities were measured with CCK8 kit.

[4] = system: Cal27, UM-SCC6 and HT1080 cells; assay: as above; assay type: cell-based, human; details: Cal27, UM-SCC6 and HT1080 cells 'respectively', only two values printed; read-out: 1050 of mPMS
Method: as §2

[5] = system: HEKa, SK-Mel-5, Cal27, UM-SCC6 and HT1080 cells; assay: Differential cellular responses to mPMS, cell viability, all lines; assay type: cell-based, human; details: 30, 40 or 50 μM mPMS 4 hours, then 24 hours
Method: as §2

Cal27 cells = assay: WST-3 with or without mPMS plus apigenin, cell viability; assay type: cell-based, human; details: 30 μM mPMS added to 0.1 mM WST-3 and 30 μM apigenin
Method: (§3) Method: UM-SCC6, HT1080, Cal127, SK-Mel-5, and HEKa cells were treated with 0.1 mM WST-3 plus 30 μM mPMS, or WST-3 only, or untreated control in combination with 10 or 30 μM apigenin for 4 hours and, then, changed to normal growth medium and remained culture in this medium for another 24 hours. After the 24 hours culture, cell viabilities were measured with CCK8 Kit. Data were normalized to % of untreated control cells.

UM-SCC6 cells [6] = assay: as above; assay type: cell-based, human; details: 30 μM mPMS added to 0.1 mM WST-3 and 30 μM apigenin
Method: as §3

HT1080 cells [7] = assay: DNA transfection, IKK inhibitor III and WST-1 combination, cell viability by CCK8; assay type: cell-based, human
Method: Methods: HT1080 cells were cultured in 96 well plates and transfected with one of the pUC19, pcDNA3, IKK1-KA, IKK1-KA+PUC19, or pcDNA3+pUC19 DNA vectors for 24 hours followed with treatment of IKK Inhibitor IIII at 3-30 μM for another 24 hours and, then, treated with 10% WST-1 for 4 hours and cultured overnight before detection. The same treatments of cells were measured at 24, 48 and 96 hours after WST-1 treatment. Cell viability was measured by Cell Count Kit 8 (CCK8).

[8] = system: ROS generation in HT1080 cells; assay: ROS labeling with CM-H2-DCFDA (imaging); assay type: cell-based, human; details: cells transfected with pUC19, no exposure to WST-1
Method: Methods: HT1080 cells were cultured in cover slices and transfected with pUC19 and treated with IKK inhibitor III in sequential. Following these treatment, the cells, thus, treated, were either labeled with CM-H2-DCFDA, a fluorescence dye that can labeling ROS in cells, and, then, treated with WST-1 for 30 minutes (FIG. 23A) or treated with WST-1 for 2 hours and then labeled with CM-H2-DCFDA (FIG. 23-B). The results were recorded by a digital camera with Spotlight software. Manuel exposure levels were used to maintain the same exposure level for comparison.

[9] = system: SK-Mel-5 human melanoma cells; assay: WST-1r then IKK inhibitor III, cell viability by CCK8; assay type: cell-based; details: WST-1r 1% and 3% 4 hours, then BMS345541 3 and 10 μM 24 hours; combination 3% WST-1r and 10 μM BMS345541
Method: (§4) Method: SK-Mel-5 and T294 human melanoma cells were treated with WST-1r at 1% and 3% final concentration respectively as indicated for 4 hours, then, removed WST-1r by changing to normal growth medium and added IKK inhibitor III for another 24 hours. After 24 hours treatment with 3 μM and 10 μM IKK inhibitor III respectively as indicated, cells were changed to grow in normal growth medium for 48 hours before measuring cell viability by CCK8 Kit.

[10] = system: T294 human melanoma cells; assay: as above; assay type: cell-based; details: WST-1r 1% and 3% 4 hours, then BMS345541 3 and 10 μM 24 hours; combination 3% WST-1r and 10 μM BMS345541
Method: as §4

[11] = system: ROS generation in UM-SCC6 cells; assay: Dose response of ROS generation (CM-H2-DCFDA fluorescence); assay type: cell-based, human
Method: Method: UM-SCC6 cells were labeled with 10 μM CM-H2-DCFDA for 15 minutes and then treated with WST-1r or CCK8 at the indicated amounts in combination with variable doses of apigenin (A) or IKK Inhibitor III (B) for 4 hours. Fluorescence at Ex485/Em535 were measured for detecting ROS generation that labeled by the CM-H2-DCFDA.

HT1080 cells [12] = assay: siRNA or Puc19 transfection, IKK inhibitor III and WST-1r triple combination, CCK8; assay type: cell-based, human; details: IKK inhibitor 24 hours, then WST-1r 4 hour
Method: Method: HT1080 cells were transfected with siRNA#3, or the siRNA targeting MAGI3, and TMEM182 that were derived from Puc19 DNA sequence and the siRNAs that targeting the corresponding genes that are the targets of the Puc19 derived siRNAs for 24 hours, then, treated with IKK inhibitor III for 24 hours followed by adding WST-1r for another 4 hour. After the 4 hours WST-1r treatment, cells in culture were changed to normal growth medium for 24 hours. Cell viability were monitored by CCK8 Kit every 24 hours. Data were normalized to % of untreated control cells. AllStar siRNA was used as negative siRNA trasnfection control. Puc19 DNA vector transfection was used as positive control.
Data label: Untreated control: 0 Ctrl, WST-1r only: 10 Ctrl, pUC19 transfected cells: 0 p9, pUC19 transfected and WST-1r treated: 10 p9, AllStar negative contrl siRNA transfected: 0 AllStar, AllStar transfected and WST-1r treated: 10 AllStar, siRNA#3 transfected: 0 siRNA#3, siRNA#3 transfcted and WST-1r treated: 10 siRNA#3, siRNAMAGI3 transfected: 0 MAGI3, siRNA MAGI3 transfcted and WST-1r treated: 10 MAGI3, siRNATMEM182 transfected: 0 TMEM182, siRNATMEM182 transfcted and WST-1r treated: 10 TMEM182,

Molecule	cell death (HT1080 cells [1])	IC50 (UM-SCC6 cells [2]; combination of apigenin 100 μM and mPMS+WST-1) [µM]	cell death (UM-SCC6 cells [2]; mPMS variable with 1 mM WST-1c and 10, 30 or 100 μM apigenin)	IC50 (UM-SCC6 cells [2]; untreated control cells (no apigenin)) [µM]	sensitivity to mPMS treatment ([3]; compared with the cancer cell lines)	IC50 ([3]; mPMS 4 hours, then 24 hours) [µM]	IC50 [4]	cell death and sensitivity to mPMS [5]	effect of adding mPMS on cell death (Cal27 cells)	effect of adding mPMS on cell death (UM-SCC6 cells [6])	cell death by morphology examination (HT1080 cells [7]; 30 μM, 24 hours after the WST-1 treatment)	induction of cell death (HT1080 cells [7]; cells transfected with any of the DNA vectors, IKK inhibitor III 3-30 μM, 24, 48 and 96 hour after WST-1 treatment, vs non transfected control)	labeled ROS [8]	cell death [9]	cell death [10]	ROS levels ([11]; 5 μM IKK Inhibitor, alone and with WST-1r)	ROS levels ([11]; 10 μM IKK Inhibitor III, alone and with WST-1r)	ROS levels ([11]; IKK Inhibitor III combined with CCK8)	cell death (HT1080 cells [12])
1-methoxy-5-methyl-phenazinium methyl sulfate [mPMS]	dose dependent cell death	30	dose dependent cell death	80	least sensitivity to mPMS treatment	50	20 µM and 30 µM	mPMS dose dependent cell death and differential sensitivities to mPMS treatment	further synergize the cell death	further synergize the cell death									
Cc1ccc2nc(NCCN)c3ncc(C)n3c2c1 [IKK inhibitor III]											majority of the 30 μM IIKK inhibitor III treated cells died	significant IKK inhibitor III dose dependent induction of cell death	IKK inhibitor III dose dependent labeled ROS	dose dependent increase of cell deaths	dose dependent increase of cell deaths	increased ROS levels	decreased it	no combined effect with CCK8 on ROS levels	dose dependent cell death
